Results from the supplement of paper PMC8497498.

How the values were obtained:
[1] = tested on: Plasmodium vivax liver stage (primary human hepatocyte culture)
How it was run: (§1)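 P. vivax sporozoites from mosquitoes fed on patient isolates were used to infect primary human hepatocytes, which received compounds at 8 points (10 uM[…]) or 12 points in duplicate (50 uM–280 pM). High-content imaging of immunostained wells recorded schizont growth area, hypnozoite count and hepatic nuclei relative to DMSO and positive-control wells. Potency, maximum inhibition and nuclei-loss cytotoxicity were fitted in CDD Vault from the best-quality run, omitting toxic bell-shaped points.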

[2] = tested on: Plasmodium cynomolgi Berok K4 asexual blood stage; assay: EC50 asexual blood stage growth
Procedure: (§2)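 The Reference Compound Library was tested by 10-point 3-fold dose response against P. cynomolgi Berok K4 asexual blood stages (SYBR proliferation assay, mefloquine background control). Culture medium contained 0.5% AlbuMAX or 20% M. fascicularis serum. P. falciparum 3D7 was tested in a 72-h SYBR Green assay with 0.5% AlbuMAX. Values are geometric mean EC50 over independent experiments; 10 uM is the top dose.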

[3] = tested on: Plasmodium falciparum 3D7 asexual blood stage; assay: EC50 asexual blood stage growth; settings: serum: 0.5% AlbuMAX
Procedure: as §2

[4] = tested on: primary human hepatocytes; assay: CC20 hepatic nuclei (20% reduction); higher = less toxic
How it was run: as §1

[5] = tested on: Plasmodium vivax liver stage (primary human hepatocyte culture); assay: maximum inhibition of schizont net growth area; higher = more active
How it was run: as §1

[6] = P. vivax isolate: Pv360, hepatocyte lot: UBV, assay mode: Radical Cure, 8-day (treatment from day 5 post-infection)
[7] = P. vivax isolate: Pv914, hepatocyte lot: BGW, assay mode: Prophylactic, 6-day
[8] = serum: 20% M. fascicularis serum
[9] = P. vivax isolate: IVS16-38, hepatocyte lot: PDC, assay mode: Prophylactic, 6-day
[10] = P. vivax isolate: Pv923, hepatocyte lot: BGW, assay mode: Radical Cure, 8-day (treatment from day 5 post-infection)

| Structure (SMILES) | EC50 hypnozoite quantity [1, 6] | EC50 schizont net growth area [1, 6] | EC50 hypnozoite quantity [1, 7] | EC50 schizont net growth area [1, 7] | EC50 asexual blood stage growth ([2]; serum: 0.5% AlbuMAX) | EC50 asexual blood stage growth [2, 8] | EC50 asexual blood stage growth [3] | CC20 hepatic nuclei [4, 6] | CC20 hepatic nuclei [4, 7] | maximum inhibition [5, 6] | maximum inhibition [5, 7] | EC50 hypnozoite quantity [1, 9] | EC50 schizont net growth area [1, 9] | EC50 hypnozoite quantity [1, 10] | EC50 schizont net growth area [1, 10] | CC20 hepatic nuclei [4, 9] | CC20 hepatic nuclei [4, 10] | maximum inhibition [5, 9] | maximum inhibition [5, 10] |
| --- | --- | --- | --- | --- | --- | --- | --- | --- | --- | --- | --- | --- | --- | --- | --- | --- | --- | --- | --- |
| Cc1nc(Nc2ncc(N3CCN(C)C(C)C3)c(Nc3cc(C)n(C)n3)n2)cc(C2CC2)c1F (stereo not given) [AZ412] | > 10000 nM | 381 nM | > 3330 nM | 686 nM | 76.8 nM | 56.7 nM | 23.2 nM | > 10000 nM | > 10000 nM | 104% | 99.7% | – | – | – | – | – | – | – | – |
| CCc1nc(N)nc(N)c1OCCCOc1ccccc1CCC(=O)O [P218] | – | – | > 10000 nM | 51.1 nM | 0.7 nM | 1.7 nM | 2 nM | – | > 10000 nM | – | 101% | – | – | – | – | – | – | – | – |
| Cc1cc(Nc2ccc(S(F)(F)(F)(F)F)cc2)n2nc(C(C)(F)F)nc2n1 [DSM265] | – | – | – | – | 6.4 nM | 62.5 nM | 11 nM | – | – | – | – | > 3070 nM | 126 nM | > 10000 nM | > 1110 nM | > 3070 nM | > 10000 nM | 100% | 69.4% |
| CCCCCCC[C@@H]1CN[C@H](C(=O)NC(C(C)Cl)C2O[C@H](SC)[C@H](O)[C@@H](O)[C@H]2O)C1 (stereo partly drawn) [Cis-Mirincamycin] | – | – | > 10000 nM | – | 7990 nM | > 10000 nM | > 10000 nM | – | > 10000 nM | – | 69.3% | – | – | – | – | – | – | – | – |
